Laboratory results taken from US20220127297A1, “Novel Antibacterial 3"-Derivatives Of 4,6-Disubstituted 2,5-Dideoxystreptamine Aminoglycoside Antibiotics” (AGILeBiotics B.V., priority 2018, published 2022).
Values after ≈ are worked out from the molar mass of the structure shown. Where two headings read alike, the source gives them in different places.

Assays:
[1] = tested on: E. coli ATCC25922 strain; assay: MIC 50, broth micro-dilution, wild-type Escherichia coli; type: cell-based; conditions: Escherichia coli, MH2, 18 h
How it was run: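 Two-fold dilution series (final 64 μM–31.3 nM) tested in triplicate in Mueller Hinton 2 broth against E. coli ATCC 25922 and plasmid-bearing derivatives, inoculum OD600 0.1. After 18 h at 37° C with shaking, averaged OD600 gave growth curves; MIC50 taken where growth fell to half-maximal.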

[2] = tested on: E. coli (AAC(6′)Ie-APH(2″)Ia); assay: MIC 50, broth micro-dilution, E. coli expressing AAC(6′)Ie-APH(2″)Ia; type: cell-based, Escherichia coli; conditions: Escherichia coli, ATCC25922, ATCC25922 harboring plasmid encoding AAC(6′)Ie-APH(2″)Ia
How it was run: (§1)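 Broth microdilution in MH2 medium with final compound range 64 μM–31.3 nM, triplicate, incubated 18 h at 37 °C against E. coli ATCC 25922 transformed with the relevant resistance-enzyme plasmid (kanamycin A 50 μg/mL selection; inoculum OD600 0.1). Growth measured at 600 nm; MIC50 is where growth reaches half maximum.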

[3] = tested on: E. coli (AAC(3)III); assay: MIC 50, broth micro-dilution, E. coli expressing AAC(3)III; type: cell-based, Escherichia coli; conditions: Escherichia coli, ATCC25922, ATCC25922 harboring plasmid encoding AAC(3)III
[4] = tested on: E. coli (AAC(3)IV); assay: MIC 50, broth micro-dilution, E. coli expressing AAC(3)IV; type: cell-based, Escherichia coli; conditions: Escherichia coli, ATCC25922, ATCC25922 harboring plasmid encoding AAC(3)IV
How it was run: as §1

Structure (SMILES)	MIC50 ([1]; ATCC25922, 18 h)	MIC50 [2]	MIC50 [3]	MIC50 [4]	MIC50 ([1]; read-out: MIC 50)
CC(C)(C)CCNC(=N)NC1[C@@H](O)C(OC2[C@@H](F)[C@H](O[C@H]3OC(CN)[C@@H](O)CC3N)C(N)C[C@H]2NC(=O)[C@@H](O)CCN)O[C@H](CO)[C@H]1O (stereo partly drawn) [ABX5025, Tobra-AHB-F-Gua 2-tBu-ethyl]	0.25 to 0.5 µM (≈ 0.174 to 0.348 µg/mL)	0.5 µM (≈ 0.348 µg/mL)	0.5 µM (≈ 0.348 µg/mL)	2 µM (≈ 1.39 µg/mL)	–
N=C(NC[C@@H]1CCCN1)NC1[C@@H](O)C(OC2[C@@H](F)[C@H](O[C@H]3OC(CN)[C@@H](O)CC3N)C(N)C[C@H]2NC(=O)[C@@H](O)CCN)O[C@H](CO)[C@H]1O (stereo partly drawn) [ABX5026, Tobra-AHB-F-Gua (S) pyrrolidine-2-yl-methyl]	0.25 µM (≈ 0.174 µg/mL)	0.25 to 0.5 µM (≈ 0.174 to 0.348 µg/mL)	0.25 µM (≈ 0.174 µg/mL)	0.5 µM (≈ 0.348 µg/mL)	–
N=C(NCC1CC1)NC1[C@@H](O)C(OC2[C@@H](F)[C@H](O[C@H]3OC(CN)[C@@H](O)CC3N)C(N)C[C@H]2NC(=O)[C@@H](O)CCN)O[C@H](CO)[C@H]1O (stereo partly drawn) [ABX5027, Tobra-AHB-F-Gua cyclopropylmethyl]	0.5 µM (≈ 0.333 µg/mL)	0.5 µM (≈ 0.333 µg/mL)	0.25 µM (≈ 0.167 µg/mL)	2 µM (≈ 1.33 µg/mL)	–
N=C(NCCO)NC1[C@@H](O)C(OC2[C@@H](F)[C@H](O[C@H]3OC(CN)[C@@H](O)CC3N)C(N)C[C@H]2NC(=O)[C@@H](O)CCN)O[C@H](CO)[C@H]1O (stereo partly drawn) [ABX5029, Tobra-AHB-F-Gua 2-hydroxy-ethyl]	0.5 µM (≈ 0.328 µg/mL)	0.5 to 1 µM (≈ 0.328 to 0.657 µg/mL)	0.5 µM (≈ 0.328 µg/mL)	2 µM (≈ 1.31 µg/mL)	–
N=C(NCCCN)NC1[C@@H](O)C(OC2[C@@H](F)[C@H](O[C@H]3OC(CN)[C@@H](O)CC3N)C(N)C[C@H]2NC(=O)[C@@H](O)CCN)O[C@H](CO)[C@H]1O (stereo partly drawn) [ABX5030, Tobra-AHB-F-Gua-3-amino-propyl]	0.25 µM (≈ 0.167 µg/mL)	0.25 to 0.5 µM (≈ 0.167 to 0.335 µg/mL)	0.25 µM (≈ 0.167 µg/mL)	0.5 µM (≈ 0.335 µg/mL)	–
CNCCNC(=N)NC1[C@@H](O)C(OC2[C@@H](F)[C@H](O[C@H]3OC(CN)[C@@H](O)CC3N)C(N)C[C@H]2NC(=O)[C@@H](O)CCN)O[C@H](CO)[C@H]1O (stereo partly drawn) [ABX5038, Tobra-AHB-F-Gua 2-(methylamino)ethyl]	0.25 µM (≈ 0.167 µg/mL)	0.25 µM (≈ 0.167 µg/mL)	0.25 µM (≈ 0.167 µg/mL)	1 µM (≈ 0.67 µg/mL)	–
N=C(NC[C@@H]1CCNC1)NC1[C@@H](O)C(OC2[C@@H](F)[C@H](O[C@H]3OC(CN)[C@@H](O)CC3N)C(N)C[C@H]2NC(=O)[C@@H](O)CCN)O[C@H](CO)[C@H]1O (stereo partly drawn) [ABX5039, Tobra-AHB-F-Gua (R) pyrrolidine-3-ylmethyl]	0.25 µM (≈ 0.174 µg/mL)	0.25 µM (≈ 0.174 µg/mL)	0.25 µM (≈ 0.174 µg/mL)	1 µM (≈ 0.696 µg/mL)	–
N=C(NC[C@@H]1CNCCO1)NC1[C@@H](O)C(OC2[C@@H](F)[C@H](O[C@H]3OC(CN)[C@@H](O)CC3N)C(N)C[C@H]2NC(=O)[C@@H](O)CCN)O[C@H](CO)[C@H]1O (stereo partly drawn) [ABX5040, Tobra-AHB-F-Gua (S) morpholin-2-yl methyl]	0.5 µM (≈ 0.356 µg/mL)	0.25 µM (≈ 0.178 µg/mL)	0.25 µM (≈ 0.178 µg/mL)	1 µM (≈ 0.712 µg/mL)	–
N=C(NCCCO)NC1[C@@H](O)C(OC2[C@@H](F)[C@H](O[C@H]3OC(CN)[C@@H](O)CC3N)C(N)C[C@H]2NC(=O)[C@@H](O)CCN)O[C@H](CO)[C@H]1O (stereo partly drawn) [ABX5041, Tobra-AHB-F-Gua 3-hydroxy-propyl]	0.5 µM (≈ 0.335 µg/mL)	0.5 µM (≈ 0.335 µg/mL)	0.5 µM (≈ 0.335 µg/mL)	2 µM (≈ 1.34 µg/mL)	–
N=C(NC[C@H]1CCNC1)NC1[C@@H](O)C(OC2[C@@H](F)[C@H](O[C@H]3OC(CN)[C@@H](O)CC3N)C(N)C[C@H]2NC(=O)[C@@H](O)CCN)O[C@H](CO)[C@H]1O (stereo partly drawn) [ABX5042, Tobra-AHB-F-Gua (S) pyrrolidine-3-ylmethyl]	0.25 µM (≈ 0.174 µg/mL)	0.25 µM (≈ 0.174 µg/mL)	0.125 µM (≈ 0.087 µg/mL)	1 µM (≈ 0.696 µg/mL)	–
N=C(NC[C@H]1CNCCO1)NC1[C@@H](O)C(OC2[C@@H](F)[C@H](O[C@H]3OC(CN)[C@@H](O)CC3N)C(N)C[C@H]2NC(=O)[C@@H](O)CCN)O[C@H](CO)[C@H]1O (stereo partly drawn) [ABX5043, Tobra-AHB-F-Gua (R) morpholin-2-yl methyl]	0.25 µM (≈ 0.178 µg/mL)	0.25 µM (≈ 0.178 µg/mL)	0.25 µM (≈ 0.178 µg/mL)	1 µM (≈ 0.712 µg/mL)	–
N=C(N)NC1[C@@H](O)C(OC2[C@@H](F)[C@H](O[C@H]3OC(CNCCO)[C@@H](O)CC3N)C(N)C[C@H]2NC(=O)[C@@H](O)CCN)O[C@H](CO)[C@H]1O (stereo partly drawn) [ABX5045, 6N-2-hydroxy-ethyl-Tobra-AHB-F-Gua]	1 µM (≈ 0.657 µg/mL)	0.5 µM (≈ 0.328 µg/mL)	0.5 to 1 µM (≈ 0.328 to 0.657 µg/mL)	2 µM (≈ 1.31 µg/mL)	–
N=C(NCC1CCCO1)NC1[C@@H](O)C(OC2[C@@H](F)[C@H](O[C@H]3OC(CN)[C@@H](O)CC3N)C(N)C[C@H]2NC(=O)[C@@H](O)CCN)O[C@H](CO)[C@H]1O (stereo partly drawn) [ABX5046, Tobra-AHB-F-Gua tetrahydrofuran-2-yl methyl]	0.5 µM (≈ 0.348 µg/mL)	0.5 µM (≈ 0.348 µg/mL)	0.5 µM (≈ 0.348 µg/mL)	1 to 2 µM (≈ 0.697 to 1.39 µg/mL)	–
C[C@@H](N)CCNC(=N)NC1[C@@H](O)C(OC2[C@@H](F)[C@H](O[C@H]3OC(CN)[C@@H](O)CC3N)C(N)C[C@H]2NC(=O)[C@@H](O)CCN)O[C@H](CO)[C@H]1O (stereo partly drawn) [ABX5047, Tobra-AHB-F-Gua (R) 3-amino-butyl]	0.25 µM (≈ 0.171 µg/mL)	0.25 µM (≈ 0.171 µg/mL)	0.25 µM (≈ 0.171 µg/mL)	1 to 2 µM (≈ 0.684 to 1.37 µg/mL)	–
N=C(NCc1ccncc1)NC1[C@@H](O)C(OC2[C@@H](F)[C@H](O[C@H]3OC(CN)[C@@H](O)CC3N)C(N)C[C@H]2NC(=O)[C@@H](O)CCN)O[C@H](CO)[C@H]1O (stereo partly drawn) [ABX5048, Tobra-AHB-F-Gua pyridin-4-yl methyl]	1 µM (≈ 0.704 µg/mL)	0.5 µM (≈ 0.352 µg/mL)	0.5 to 1 µM (≈ 0.352 to 0.704 µg/mL)	1 to 2 µM (≈ 0.704 to 1.41 µg/mL)	–
N=C(NCc1cnc[nH]1)NC1[C@@H](O)C(OC2[C@@H](F)[C@H](O[C@H]3OC(CN)[C@@H](O)CC3N)C(N)C[C@H]2NC(=O)[C@@H](O)CCN)O[C@H](CO)[C@H]1O (stereo partly drawn) [ABX5050, Tobra-AHB-F-Gua imidazol-5-yl methyl]	1 µM (≈ 0.693 µg/mL)	1 µM (≈ 0.693 µg/mL)	1 µM (≈ 0.693 µg/mL)	2 to 4 µM (≈ 1.39 to 2.77 µg/mL)	–
N=C(NCC1CCOC1)NC1[C@@H](O)C(OC2[C@@H](F)[C@H](O[C@H]3OC(CN)[C@@H](O)CC3N)C(N)C[C@H]2NC(=O)[C@@H](O)CCN)O[C@H](CO)[C@H]1O (stereo partly drawn) [ABX5051, Tobra-AHB-F-Gua tetrahydrofuran-3-yl methyl]	0.5 µM (≈ 0.348 µg/mL)	0.5 µM (≈ 0.348 µg/mL)	0.5 to 1 µM (≈ 0.348 to 0.697 µg/mL)	2 µM (≈ 1.39 µg/mL)	–
NCC[C@H](O)C(=O)N[C@@H]1C[C@H](N)[C@@H](O[C@H]2O[C@H](CN)[C@@H](O)[C@H](O)[C@H]2O)[C@H](O)[C@H]1O[C@H]1O[C@H](CO)[C@@H](O)[C@H](N)[C@H]1O [Amikacin, amikacin, reference compound]	–	4 to 8 µM (≈ 2.34 to 4.68 µg/mL)	2 µM (≈ 1.17 µg/mL)	8 µM (≈ 4.68 µg/mL)	2 µM (≈ 1.17 µg/mL)
